Experimental data taken from patent publication US20170029388A1, “Treatment of Neurodegenerative Diseases with Asparagine Endopeptidase (AEP) Inhibitors and Compositions Related Thereto” (INTERCONTINENTAL GREAT BRANDS LLC, priority 2014, published 2017).
“Also recorded” adds a separate entry of the source.

What was measured:
5XFAD mice [1] = assay: Morris water maze in 5XFAD mice; type: in vivo, mouse
From the text: A. Thioflavin-S staining of amyloid plaques in the hippocampus (HP), motor cortex (MC), and frontal cortex (FC) of 5XFAD mouse brain sections. Scale bar, 50 μm. B. Quantitative analysis of amyloid plaques. […] F. The percentage of time spent in the target quadrant in the probe trail.
Female wild-type and 5XFAD mice maintained on standard drinking water or compound #11 were trained in a round, water-filled tub (52 inch diameter) in an environment rich with extra maze cues. An invisible escape platform was located in a fixed spatial location 1 cm below the water surface independent of a subjects start position on a particular trial. In this manner, subjects needed to utilize extra maze cues to determine the platform's location. At the beginning of each trial, the mouse was placed in the water maze with their paws touching the wall from 1 of 4 different starting positions (N, S, E, W). Each subject was given 4 trials/day for 5 consecutive days with a 15-min inter-trial interval. […] Upon reaching the invisible escape platform, subjects were left on it for an additional 5 s to allow for survey of the spatial cues in the environment to guide future navigation to the platform. After each trial, subjects were dried and kept in a dry plastic holding cage filled with paper towels to allow the subjects to dry off The temperature of the water was monitored every hour so that mice were tested in water that was between 22 and 25° C. Following the 5 days of task acquisition, a probe trial was presented during which time the platform was removed and the percentage of time spent in the quadrant which previously contained the escape platform during task acquisition was measured over 60 s. All trials were analysed for latency, swim path length, and swim speed by means of MazeScan (Clever Sys, Inc.).

5XFAD mice [2] = assay: Synaptic density, spine density and LTP in 5XFAD mice; type: in vivo, mouse
From the text: A. Representative electron microscopy of the synaptic structures. Arrows indicate the synapses. B. Quantitative analysis of the synaptic density in vehicle—and compound 11-treated 5XFAD mice. Data are shown as mean ±SEM (n=3 mice per group). * p <0.01. C. […] Scale bar, 5 μm. D. Quantitative analysis of the spine density. […] E. Long-term potentiation (LTP) of fEPSPs was induced by 3× TBS (4 pulses at 100 Hz, repeated 3 times with a 200-ms interval). Shown traces are representative fEPSPs recorded at the time point 1 and 2 (vehicle treated), 3 and 4 (compound 11-treated mouse). […] Data are presented as mean±SEM. *p<0.05 vs vehicle-treated mice. F. Synaptic transmission assessed by input/output (I/O) relation between stimuli intensity and fEPSP slope. I/O curves obtained in hippocampal slices prepared from vehicle- and compound 11-treated 5XFAD mice.
Synaptic dysfunction is the early feature of AD and is believed to be the basis of cognitive impairment. 5XFAD mice show decreased synaptic density compared to non-transgenic control mice. […] The density of dendritic spines along individual dendrites of pyramidal neurons was assessed by Golgi stain. […] Long-term potentiation (LTP) is a measure of synaptic plasticity that underlies learning and memory. 5XFAD mice have decreased LTP magnitude at Schaffer collateral-CA1 pathways.
Synaptic density was determined by electron microscopy as described previously (22). After deep anesthesia, mice were perfused transcardially with 2% glutaraldehyde and 3% paraformaldehyde in PBS. […]
Electrophysiological analysis was carried out as previously described (23). […] The field excitatory post-synaptic potentials (fEPSPs) were recorded in CA1 stratum radiatum by a glass microelectrode filled with a-CSF with resistance of 3-4 MEI The stimulation output (Master-8; AMPI, Jerusalem) was controlled by the trigger function of an EPC9 amplifier (HEKA Elektronik, Lambrecht, Germany). fEPSPs were recorded under current-clamp mode. […] The magnitudes of LTP are expressed as the mean percentage of baseline fEPSP initial slope. […]

C57BL/6J mice = assay: Acute and chronic toxicity in C57BL/6J mice; details: 100 mg/kg
Cathepsin-L = Cathepsin-L (Homo sapiens, UniProt P07711); assay: Cathepsin-L enzymatic assay (specificity); type: biochemical
Sequence of Cathepsin-L (P07711 114-333, species assumed): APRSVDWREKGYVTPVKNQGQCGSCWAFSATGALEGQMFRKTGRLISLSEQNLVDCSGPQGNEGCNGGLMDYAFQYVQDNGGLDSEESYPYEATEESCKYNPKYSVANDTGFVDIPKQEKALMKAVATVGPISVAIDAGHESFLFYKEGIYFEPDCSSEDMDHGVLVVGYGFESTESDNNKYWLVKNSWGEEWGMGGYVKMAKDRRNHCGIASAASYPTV
Experimental: Purified recombinant enzyme was incubated with various concentrations of inhibitor in appropriate assay buffers in the presence of increasing concentrations of inhibitor. The formation of fluorescent product was monitored in duplicate reactions and the data was fit to appropriate equations to calculate the IC50 values.
To identify small-molecule inhibitors of AEP, a high-throughput screen was designed in conjunction with the Emory Chemical Biology Discovery Center. The screen incorporated mouse kidney lysates to assay a 54,384 compound library. […] Additional structural analysis and grouping allowed the compounds to be sorted into 8 distinct backbone families. […] The specificity of the compounds was also determined using four major cysteine proteases (FIG. 2).
Cathepsin-L—100 nM enzyme was pre-incubated with inhibitor in assay buffer (100 mM Sodium Acetate pH 5.5, 1 mM EDTA) for 10 min at 37° C. The reaction was initiated upon addition of 25 μM substrate (D-Val-Leu-Lys-AMC (Bachem)).

Row | Compound | Morris water maze, distance to platform (5XFAD mice [1]; 5 acquisition days, vs vehicle) | swim speed (5XFAD mice [1]; mouse, in vivo) | Morris water maze probe test, time in target quadrant (5XFAD mice [1]; vs vehicle) | density of dendritic spines (Golgi stain) (5XFAD mice [2]; 5XFAD mice) | density of synapse (electron microscopy) (5XFAD mice [2]; CA1 area, 5XFAD mice) | long-term potentiation (LTP) magnitude (5XFAD mice [2]; Schaffer collateral-CA1, 5XFAD mice) | systemic toxicity (C57BL/6J mice) | body weight (C57BL/6J mice; oral gavage, 30-day period) | complete blood count (CBC) parameters (C57BL/6J mice; oral gavage, 30-day period) | immunohistochemical staining, drug-treated vs vehicle-treated (C57BL/6J mice; oral gavage, 30-day period) | selectivity for AEP over Cathepsin-L (Cathepsin-L)
1 | Nc1ccc(N2CCOCC2)c2nonc12 [Compound 11] | decreased distance to platform | not altered; also recorded: not affected | spend more time in the target quadrant; also recorded: spent more time in the target quadrant | increased; also recorded: reversed | notably increased | significantly reversed the LTP deficits; also recorded: enhanced | does not exhibit systemic toxicity | no significant change | within the normal range | no major differences | 
2 | Sc1nnc(Nc2ccccc2)s1 [Compound BB1] |  |  |  |  |  |  |  |  |  |  | about 38 fold
